ChEMBL document CHEMBL1201862, “PubChem BioAssay data set” (2004)
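Values below derive from 48-hour exposures of cells grown in 96-well plates, with endpoints linearly interpolated between the two concentrations bracketing the appropriate inhibition level. GI50 = concentration required for 50% inhibition of growth.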 Active and inactive are the calls of the source. No stated cut-off is given here; in the data, active = GI50 up to about 1.1 µM and inactive = higher.

Tests used:
Test in all cases: NCI tumour cell line growth inhibition, 48 h
[1] = system: OVCAR-5
[2] = system: MOLT-4
[3] = system: NCI-H23
[4] = system: HL-60
[5] = system: BT-549
[6] = system: M14
[7] = system: A549
[8] = system: MDA-MB-231
[9] = system: NCI-H226
[10] = system: KM12
[11] = system: HCT-116
[12] = system: UACC-257
[13] = system: SK-MEL-2
[14] = system: 786-0
[15] = system: SR
[16] = system: IGROV-1
[17] = system: SK-MEL-5
[18] = system: LOX IMVI
[19] = system: UO-31
[20] = system: SN12C
[21] = system: NCI/ADR-RES
[22] = system: CAKI-1
[23] = system: HOP-62
[24] = system: SK-MEL-28
[25] = system: K562
[26] = system: ACHN
[27] = system: OVCAR-3
[28] = system: DU-145
[29] = system: OVCAR-4
[30] = system: HOP-92
[31] = system: SF-295
[32] = system: RXF 393
[33] = system: MDA-N
[34] = system: NCI-H522
[35] = system: OVCAR-8
[36] = system: COLO 205
[37] = system: UACC-62
[38] = system: PC-3
[39] = system: Malme-3M
[40] = system: T47D
[41] = system: SF-268
[42] = system: U-251
[43] = system: HT-29
[44] = system: MDA-MB-435
[45] = system: SNB-75
[46] = system: EKVX
[47] = system: RPMI-8226
[48] = system: SNB-19
[49] = system: CCRF-CEM
[50] = system: Hs-578T
[51] = system: SK-OV-3
[52] = system: TK-10
[53] = system: SW-620
[54] = system: HCT-15
[55] = system: NCI-H460
[56] = system: MCF7
[57] = system: HCC 2998
[58] = system: A498
[59] = system: SF-539

Q: With `Oc1ccc2ccccc2c1/N=N/c1ccc(Cl)cc1` as the molecule, how does the GI50 [1] read?
A: > 100 µM (inactive)

Q: What about the GI50 [2] of the same molecule?
A: > 100 µM (inactive)

Q: And the GI50 [3]?
A: > 100 µM (inactive)

Q: And the GI50 [4]?
A: > 100 µM (inactive)

Q: What about the GI50 [5] of the same molecule?
A: > 100 µM (inactive)

Q: What about the GI50 [6] of the same molecule?
A: > 100 µM (inactive)

Q: And the GI50 [7]?
A: > 100 µM (inactive)

Q: What about the GI50 [8] of the same molecule?
A: 26.9 µM (inactive)

Q: What about the GI50 [9] of the same molecule?
A: > 100 µM (inactive)

Q: And the GI50 [10]?
A: > 100 µM (inactive)

Q: And the GI50 [11]?
A: 51.9 µM (inactive)

Q: What about the GI50 [12] of the same molecule?
A: > 100 µM (inactive)

Q: What about the GI50 [13] of the same molecule?
A: > 100 µM (inactive)

Q: What about the GI50 [14] of the same molecule?
A: 34.6 µM (inactive)

Q: And the GI50 [15]?
A: 39.5 µM (inactive)

Q: What about the GI50 [16] of the same molecule?
A: > 100 µM (inactive)

Q: What about the GI50 [17] of the same molecule?
A: > 100 µM (inactive)

Q: And the GI50 [18]?
A: 24.8 µM (inactive)

Q: What about the GI50 [19] of the same molecule?
A: > 100 µM (inactive)

Q: And the GI50 [20]?
A: > 100 µM (inactive)

Q: What about the GI50 [21] of the same molecule?
A: > 100 µM (inactive)

Q: What about the GI50 [22] of the same molecule?
A: > 100 µM (inactive)

Q: What about the GI50 [23] of the same molecule?
A: > 100 µM (inactive)

Q: What about the GI50 [24] of the same molecule?
A: > 100 µM (inactive)

Q: And the GI50 [25]?
A: > 100 µM (inactive)

Q: What about the GI50 [26] of the same molecule?
A: > 100 µM (inactive)

Q: What about the GI50 [27] of the same molecule?
A: > 100 µM (inactive)

Q: What about the GI50 [28] of the same molecule?
A: > 100 µM (inactive)

Q: And the GI50 [29]?
A: > 100 µM (inactive)

Q: What about the GI50 [30] of the same molecule?
A: > 100 µM (inactive)

Q: And the GI50 [31]?
A: > 100 µM (inactive)

Q: And the GI50 [32]?
A: > 100 µM (inactive)

Q: And the GI50 [33]?
A: > 100 µM (inactive)

Q: And the GI50 [34]?
A: > 100 µM (inactive)

Q: And the GI50 [35]?
A: > 100 µM (inactive)

Q: And the GI50 [36]?
A: 53 µM (inactive)

Q: And the GI50 [37]?
A: > 100 µM (inactive)

Q: What about the GI50 [38] of the same molecule?
A: > 100 µM (inactive)

Q: What about the GI50 [39] of the same molecule?
A: > 100 µM (inactive)

Q: What about the GI50 [40] of the same molecule?
A: > 100 µM (inactive)

Q: What about the GI50 [41] of the same molecule?
A: > 100 µM (inactive)

Q: And the GI50 [42]?
A: > 100 µM (inactive)

Q: What about the GI50 [43] of the same molecule?
A: > 100 µM (inactive)

Q: What about the GI50 [44] of the same molecule?
A: > 100 µM (inactive)

Q: What about the GI50 [45] of the same molecule?
A: > 100 µM (inactive)

Q: And the GI50 [46]?
A: > 100 µM (inactive)

Q: And the GI50 [47]?
A: > 100 µM (inactive)

Q: What about the GI50 [48] of the same molecule?
A: > 100 µM (inactive)

Q: And the GI50 [49]?
A: > 100 µM (inactive)

Q: What about the GI50 [50] of the same molecule?
A: > 100 µM (inactive)

Q: And the GI50 [51]?
A: > 100 µM (inactive)

Q: What about the GI50 [52] of the same molecule?
A: > 100 µM (inactive)

Q: What about the GI50 [53] of the same molecule?
A: > 100 µM (inactive)

Q: What about the GI50 [54] of the same molecule?
A: > 100 µM

Q: How did the GI50 [1] turn out when `CC(C)=CCC/C(C)=C/CC/C(C)=C/CC/C(C)=C/CC/C(C)=C/CC/C(C)=C/CC/C(C)=C/CC/C(C)=C/CC/C(C)=C/CO` [SOLANESOL] was run?
A: > 100 µM (inactive)

Q: And the GI50 [2]?
A: > 100 µM (inactive)

Q: What about the GI50 [3] of the same molecule?
A: > 100 µM (inactive)

Q: What about the GI50 [4] of the same molecule?
A: 77.4 µM (inactive)

Q: And the GI50 [5]?
A: > 100 µM (inactive)

Q: What about the GI50 [6] of the same molecule?
A: > 100 µM (inactive)

Q: What about the GI50 [7] of the same molecule?
A: > 100 µM (inactive)

Q: And the GI50 [8]?
A: > 100 µM (inactive)

Q: What about the GI50 [9] of the same molecule?
A: > 100 µM (inactive)

Q: And the GI50 [10]?
A: > 100 µM (inactive)

Q: What about the GI50 [11] of the same molecule?
A: > 100 µM (inactive)

Q: And the GI50 [12]?
A: > 100 µM (inactive)

Q: What about the GI50 [13] of the same molecule?
A: > 100 µM (inactive)

Q: What about the GI50 [14] of the same molecule?
A: > 100 µM (inactive)

Q: What about the GI50 [15] of the same molecule?
A: > 100 µM (inactive)

Q: What about the GI50 [16] of the same molecule?
A: > 100 µM (inactive)

Q: And the GI50 [55]?
A: > 100 µM (inactive)

Q: What about the GI50 [17] of the same molecule?
A: > 100 µM (inactive)

Q: And the GI50 [18]?
A: > 100 µM (inactive)

Q: What about the GI50 [19] of the same molecule?
A: > 100 µM (inactive)

Q: What about the GI50 [20] of the same molecule?
A: > 100 µM (inactive)

Q: What about the GI50 [22] of the same molecule?
A: > 100 µM (inactive)

Q: And the GI50 [23]?
A: > 100 µM (inactive)

Q: What about the GI50 [24] of the same molecule?
A: > 100 µM (inactive)

Q: And the GI50 [25]?
A: > 100 µM (inactive)

Q: What about the GI50 [26] of the same molecule?
A: > 100 µM (inactive)

Q: What about the GI50 [27] of the same molecule?
A: > 100 µM (inactive)

Q: What about the GI50 [28] of the same molecule?
A: > 100 µM (inactive)

Q: And the GI50 [29]?
A: > 100 µM (inactive)

Q: And the GI50 [56]?
A: 87.7 µM (inactive)

Q: What about the GI50 [30] of the same molecule?
A: > 100 µM (inactive)

Q: And the GI50 [31]?
A: > 100 µM (inactive)

Q: What about the GI50 [32] of the same molecule?
A: > 100 µM (inactive)

Q: What about the GI50 [33] of the same molecule?
A: > 100 µM (inactive)

Q: And the GI50 [34]?
A: > 100 µM (inactive)

Q: What about the GI50 [35] of the same molecule?
A: > 100 µM (inactive)

Q: What about the GI50 [36] of the same molecule?
A: > 100 µM (inactive)

Q: What about the GI50 [37] of the same molecule?
A: > 100 µM (inactive)

Q: What about the GI50 [57] of the same molecule?
A: > 100 µM (inactive)

Q: What about the GI50 [38] of the same molecule?
A: > 100 µM (inactive)

Q: What about the GI50 [39] of the same molecule?
A: > 100 µM (inactive)

Q: And the GI50 [40]?
A: > 100 µM (inactive)

Q: And the GI50 [41]?
A: > 100 µM (inactive)

Q: What about the GI50 [58] of the same molecule?
A: > 100 µM (inactive)

Q: And the GI50 [42]?
A: > 100 µM (inactive)

Q: And the GI50 [43]?
A: > 100 µM (inactive)

Q: What about the GI50 [44] of the same molecule?
A: > 100 µM (inactive)

Q: And the GI50 [45]?
A: > 100 µM (inactive)

Q: And the GI50 [46]?
A: > 100 µM (inactive)

Q: And the GI50 [47]?
A: > 100 µM (inactive)

Q: What about the GI50 [48] of the same molecule?
A: > 100 µM (inactive)

Q: What about the GI50 [49] of the same molecule?
A: > 100 µM (inactive)

Q: What about the GI50 [50] of the same molecule?
A: > 100 µM (inactive)

Q: And the GI50 [51]?
A: > 100 µM (inactive)

Q: And the GI50 [59]?
A: > 100 µM (inactive)

Q: What about the GI50 [52] of the same molecule?
A: > 100 µM (inactive)

Q: And the GI50 [53]?
A: > 100 µM (inactive)

Q: What about the GI50 [54] of the same molecule?
A: > 100 µM
